Laboratory results reported in ChEMBL document CHEMBL3091273, “Sulphonamide 1,4-dithia-7-azaspiro[4,4]nonane derivatives as gelatinase A inhibitors” (Bioorg Med Chem, 2013).
pIC50: −log10 of the molar value. Active and inactive are the calls of the source. The calls are words filed in the database; no cut-off is given here.

Tests used:
Aminopeptidase N = molecular target: T1, Aminopeptidase N (Sus scrofa, UniProt P15145); test: Inhibition of pig kidney microsomal APN using L-Leu-p-nitroanilide as substrate preincubated for 30 mins by UV-vis spectrophotometry
T1 sequence (P15145 whole entry): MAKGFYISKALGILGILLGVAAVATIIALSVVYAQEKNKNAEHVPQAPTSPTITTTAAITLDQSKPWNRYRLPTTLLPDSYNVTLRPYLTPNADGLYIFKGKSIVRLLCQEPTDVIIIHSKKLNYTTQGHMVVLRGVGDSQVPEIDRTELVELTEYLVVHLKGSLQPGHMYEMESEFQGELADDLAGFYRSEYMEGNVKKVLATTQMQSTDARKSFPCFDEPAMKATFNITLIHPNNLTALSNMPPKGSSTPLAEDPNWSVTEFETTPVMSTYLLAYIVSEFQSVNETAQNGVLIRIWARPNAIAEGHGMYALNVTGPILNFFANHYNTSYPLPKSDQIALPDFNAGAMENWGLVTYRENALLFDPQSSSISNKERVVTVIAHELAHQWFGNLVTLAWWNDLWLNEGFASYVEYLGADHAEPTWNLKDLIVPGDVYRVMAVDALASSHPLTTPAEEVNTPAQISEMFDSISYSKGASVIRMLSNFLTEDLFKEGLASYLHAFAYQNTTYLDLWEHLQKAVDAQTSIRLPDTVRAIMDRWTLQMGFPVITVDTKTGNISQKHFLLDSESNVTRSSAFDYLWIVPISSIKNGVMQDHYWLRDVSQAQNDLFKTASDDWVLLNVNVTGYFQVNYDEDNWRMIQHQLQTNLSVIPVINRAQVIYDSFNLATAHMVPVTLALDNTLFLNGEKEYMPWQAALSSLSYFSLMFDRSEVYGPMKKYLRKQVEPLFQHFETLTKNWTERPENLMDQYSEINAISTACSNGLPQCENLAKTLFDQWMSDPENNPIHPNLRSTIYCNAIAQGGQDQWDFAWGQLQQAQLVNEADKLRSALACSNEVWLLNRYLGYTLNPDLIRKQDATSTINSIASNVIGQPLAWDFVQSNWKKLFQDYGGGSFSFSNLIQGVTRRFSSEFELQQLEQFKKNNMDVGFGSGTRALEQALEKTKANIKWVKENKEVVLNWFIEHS

[1] = molecular target: 72 kDa type IV collagenase (Homo sapiens, UniProt P08253); test: Inhibition of gelatinase A (unknown origin) after 30 mins by spectrophotometry
72 kDa type IV collagenase, sequence (P08253 whole entry): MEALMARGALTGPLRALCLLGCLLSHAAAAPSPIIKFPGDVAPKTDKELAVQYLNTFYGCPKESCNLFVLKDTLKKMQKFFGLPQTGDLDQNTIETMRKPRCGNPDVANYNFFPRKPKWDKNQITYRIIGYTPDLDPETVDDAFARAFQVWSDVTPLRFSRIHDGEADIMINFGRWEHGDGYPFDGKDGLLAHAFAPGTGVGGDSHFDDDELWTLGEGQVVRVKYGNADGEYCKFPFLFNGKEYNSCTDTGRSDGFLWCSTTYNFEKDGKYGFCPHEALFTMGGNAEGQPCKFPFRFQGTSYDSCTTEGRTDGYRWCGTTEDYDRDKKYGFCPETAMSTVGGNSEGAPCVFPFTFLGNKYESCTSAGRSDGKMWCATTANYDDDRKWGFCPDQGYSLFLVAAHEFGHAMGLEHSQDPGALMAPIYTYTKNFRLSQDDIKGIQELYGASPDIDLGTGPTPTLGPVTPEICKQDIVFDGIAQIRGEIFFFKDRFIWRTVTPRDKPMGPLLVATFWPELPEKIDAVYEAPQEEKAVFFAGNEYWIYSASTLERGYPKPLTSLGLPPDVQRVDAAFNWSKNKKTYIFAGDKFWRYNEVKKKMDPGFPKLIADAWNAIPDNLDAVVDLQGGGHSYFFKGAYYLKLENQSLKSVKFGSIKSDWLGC

Mus musculus = test: Toxicity in […] cells xenografted Kunming mouse assessed as change in body weight at 50 mg/kg, po administered 6 days a week for two consecutive weeks (reference value: 26.03 +/- 5.04 grams); type: organism-based; design: dose 50 mg/kg, route oral; conditions: in vivo, 144 h
H22 [2] = test: Antimetastatic activity in […] cells xenografted Kunming mouse assessed as lung weight at 50 mg/kg, po administered 6 days a week for two consecutive weeks (reference value: 0.223 +/- 0.067 grams); type: functional
K562 = test: Antiproliferative activity against human K562 cells after 48 hrs by MTT assay; type: functional, cell-based
H22 [3] = test: Antimetastatic activity in […] cells xenografted Kunming mouse assessed as inhibition of tumor nodules formation at 50 mg/kg, po administered 6 days a week for two consecutive weeks; type: functional; conditions: H22, 144 h
SK-OV-3 = test: Antiproliferative activity against human SKOV3 cells after 48 hrs by MTT assay; type: functional, cell-based; conditions: SK-OV-3, 48 h
HL-60 = test: Antiproliferative activity against human HL60 cells after 48 hrs by MTT assay; type: functional, cell-based

Structure (SMILES) | IC50 (Aminopeptidase N) | pIC50 [1] | also measured
O=C(O)[C@@H]1CC2(CN1S(=O)(=O)c1ccccc1)SCCS2 | Not Active | 4.55 | 
COc1ccc(S(=O)(=O)N2CC3(C[C@H]2C(=O)NNC(=O)Cc2ccccc2)SCCS3)cc1 | Not Active | 6.41 | 
NNC(=O)[C@@H]1CC2(CN1S(=O)(=O)c1ccc([N+](=O)[O-])cc1)SCCS2 | Not Active | 4.69 | 
NNC(=O)[C@@H]1CC2(CN1S(=O)(=O)c1ccccc1)SCCS2 | Not Active | 5.18 | 
O=C(O)[C@@H]1CC2(CN1S(=O)(=O)c1ccc([N+](=O)[O-])cc1)SCCS2 | Not Active | 6.08 | Activity (Mus musculus): 25.59 g; Activity (H22 [2]): 0.288 g; Activity (K562): inactive; inhibition in vivo at 50 mg/kg (H22 [3]): 26.3%; pIC50 (SK-OV-3): 3.68; Activity (HL-60): inactive
COc1ccc(/C=C/C(=O)N2CC(NC(=O)c3cccnc3)CC2C(=O)NO)cc1OC (configuration not stated) | Not Active | 5.99 | 
Cc1ccc(S(=O)(=O)N2CC3(C[C@H]2C(=O)O)SCCS3)cc1 | Not Active | 5.56 | 
CCOC(=O)CNC(=O)[C@@H]1CC2(CN1S(=O)(=O)c1ccc([N+](=O)[O-])cc1)SCCS2 | Not Active | 6.49 | 
CCOC(=O)CNC(=O)[C@@H]1CC2(CN1S(=O)(=O)c1ccc(C)cc1)SCCS2 | Not Active | 6.28 | 
COC(=O)[C@@H]1CC2(CN1S(=O)(=O)c1ccccc1)SCCS2 | Not Active | 5.51 | 
Cc1ccc(S(=O)(=O)N2CC3(C[C@H]2C(=O)NNC(=O)Cc2ccccc2)SCCS3)cc1 | Not Active | 6.17 | Activity (Mus musculus): 27.9 g; Activity (H22 [2]): 0.27 g; Activity (K562): inactive; inhibition in vivo at 50 mg/kg (H22 [3]): 34.3%; pIC50 (SK-OV-3): 3.82; Activity (HL-60): inactive
CCOC(=O)CNC(=O)[C@@H]1CC2(CN1S(=O)(=O)c1ccccc1)SCCS2 | Not Active | 6.17 | 
O=C(Cc1ccccc1)NNC(=O)[C@@H]1CC2(CN1S(=O)(=O)c1ccc([N+](=O)[O-])cc1)SCCS2 | Not Active | 5.74 | 
O=C(Cc1ccccc1)NNC(=O)[C@@H]1CC2(CN1S(=O)(=O)c1ccccc1)SCCS2 | Not Active | 5.26 | 
COC(=O)[C@@H]1CC2(CN1S(=O)(=O)c1ccc([N+](=O)[O-])cc1)SCCS2 | Not Active | 4.11 | 

Further lines, with some results ahead:

IC50 (Aminopeptidase N) | pIC50 [1] | Structure (SMILES) | also measured
Not Active | 6.29 | COc1ccc(S(=O)(=O)N2CC3(C[C@H]2C(=O)NO)SCCS3)cc1 | 
Not Active | 6.49 | CCOC(=O)CNC(=O)[C@@H]1CC2(CN1S(=O)(=O)c1ccc(OC)cc1)SCCS2 | 
Not Active | 6.17 | Cc1ccc(S(=O)(=O)N2CC3(C[C@H]2C(=O)NO)SCCS3)cc1 | 
Not Active | 4.97 | COc1ccc(S(=O)(=O)N2CC3(C[C@H]2C(=O)NN)SCCS3)cc1 | 
Not Active | 6.06 | O=C(NO)[C@@H]1CC2(CN1S(=O)(=O)c1ccccc1)SCCS2 | 
Not Active | 3.37 | Cc1ccc(S(=O)(=O)N2CC3(C[C@H]2C(=O)NN)SCCS3)cc1 | 
Not Active | 6.10 | O=C(NO)[C@@H]1CC2(CN1S(=O)(=O)c1ccc([N+](=O)[O-])cc1)SCCS2 | 
Not Active | 6.06 | COC(=O)[C@@H]1CC2(CN1S(=O)(=O)c1ccc(C)cc1)SCCS2 | 
Not Active | 5.13 | COC(=O)[C@@H]1CC2(CN1S(=O)(=O)c1ccc(OC)cc1)SCCS2 | 
Not Active | 5.02 | COc1ccc(S(=O)(=O)N2CC3(C[C@H]2C(=O)O)SCCS3)cc1 | 
